Assays:
[1] = 100 kPa, Liquid; for viscosity: Capillary tube (Ostwald / Ubbelohde) method; for speed of sound: Frequency=2 MHz, Single path-length method; for mass density: Vibrating tube method
[2] = xn = mol fraction of the nth substance listed; conditions: 100 kPa, Liquid; for viscosity: Capillary tube (Ostwald / Ubbelohde) method; for speed of sound: Frequency=2 MHz, Single path-length method; for mass density: Vibrating tube method

COc1ccccc1 [anisole]
[1]
Conditions | mass density [kg/m3] | speed of sound [m/s] | viscosity [mPa·s]
303.15 K | 984.4 | 1386 | 0.929
308.15 K | 979.8 | 1366 | 0.849
313.15 K | 975 | 1348 | 0.788

CC(C)OC(C)C [diisopropyl ether]
[1]
Conditions | mass density [kg/m3] | speed of sound [m/s] | viscosity [mPa·s]
303.15 K | 713.1 | 982 | 0.301
308.15 K | 707.9 | 962 | 0.287
313.15 K | 702.5 | 942 | 0.276

COc1ccccc1 [anisole] + C=COC(C)=O
[2], x2 = 0
Conditions | mass density [kg/m3] | speed of sound [m/s] | viscosity [mPa·s]
303.15 K | 984.4 | 1386 | 0.929
308.15 K | 979.8 | 1366 | 0.849
313.15 K | 975 | 1348 | 0.788

C=COC(C)=O [vinyl acetate]
[1]
Conditions | mass density [kg/m3] | speed of sound [m/s] | viscosity [mPa·s]
303.15 K | 919.4 | 1092 | 0.388
308.15 K | 913.5 | 1074 | 0.37
313.15 K | 907.3 | 1054 | 0.352

C=COCCCC [1-(ethenyloxy)butane]
[1]
Conditions | mass density [kg/m3] | speed of sound [m/s] | viscosity [mPa·s]
303.15 K | 769 | 1086 | 0.386
308.15 K | 763.9 | 1076 | 0.373
313.15 K | 758.8 | 1066 | 0.352

CC(C)OC(C)C [diisopropyl ether] + C=COC(C)=O
[2], x2 = 0
Conditions | mass density [kg/m3] | speed of sound [m/s] | viscosity [mPa·s]
303.15 K | 713.1 | 982 | 0.301
308.15 K | 707.9 | 962 | 0.287
313.15 K | 702.5 | 942 | 0.276

C=COC(C)=O [vinyl acetate] + C=COCCCC
[2], x1 = 1
Conditions | mass density [kg/m3] | speed of sound [m/s] | viscosity [mPa·s]
303.15 K | 919.4 | 1092 | 0.388
308.15 K | 913.5 | 1074 | 0.37
313.15 K | 907.3 | 1054 | 0.352

From the NIST ThermoML archive (doi:10.1016/j.jct.2019.04.018)
